From patent publication US8865623B2, “Herbicidally active cyclic diones and derivatives thereof, processes for their preparation, compositions, and method of controlling weeds” (Syngenta Limited, priority 2009, dated 2014) come the findings set out here.

Format in all cases: in vivo
The subject of experiment [1] is Echinochloa crus-galli (ECHCG). In words: Pre-emergence herbicidal activity, glasshouse pot test. The conditions noted are these: Echinochloa crus-galli, 312 h; Rate 250 g/ha; pre-emergence spray; evaluated after 13 days; read-out: Pre-emergence activity ECHCG (100=total damage to plant; 0=no damage to plant). The procedure: (§1) Seeds of a variety of test species were sown in standard soil in pots. After cultivation for one day (pre-emergence) or after 8 days cultivation (post-emergence) under controlled conditions in a glasshouse (at 24/16° C., day/night; 14 hours light; 65% humidity), the plants were sprayed with an aqueous spray solution derived from the formulation of the technical active ingredient in acetone/water (50:50) solution containing 0.5% Tween 20 (polyoxyethelyene sorbitan monolaurate, CAS RN 9005-64-5). The test plants were then grown in a glasshouse under controlled conditions in a glasshouse (at 24/16° C., day/night; 14 hours light; 65% humidity) and watered twice daily. After 13 days for pre and post-emergence, the test was evaluated (100=total damage to plant; 0=no damage to plant).
(§2) Lolium perenne (LOLPE), Alopecurus myosuroides (ALOMY), Echinochloa crus-galli (ECHCG), and Avena fatua (AVEFA).

The test system of experiment [2] is Alopecurus myosuroides (ALOMY). Described as above. The following applies: Alopecurus myosuroides, 312 h; Rate 250 g/ha; pre-emergence spray; evaluated after 13 days; read-out: Pre-emergence activity ALOMY (100=total damage to plant; 0=no damage to plant). How it is done:
as §1, §2

The test system of experiment [3] is Lolium perenne (LOLPE). The experiment is described as above. The following applies: Lolium perenne, 312 h; Rate 250 g/ha; pre-emergence spray; evaluated after 13 days; read-out: Pre-emergence activity LOLPE (100=total damage to plant; 0=no damage to plant). How it is done:
as §1, §2

Experiment [4] concerns Avena fatua (AVEFA). Described as above. The following applies: Avena fatua, 312 h; Rate 250 g/ha; pre-emergence spray; evaluated after 13 days; read-out: Pre-emergence activity AVEFA (100=total damage to plant; 0=no damage to plant). The procedure:
as §1, §2

Experiment [5] relates to Echinochloa crus-galli (ECHCG). As to the kind of experiment: Post-emergence herbicidal activity, glasshouse pot test. The following applies: Echinochloa crus-galli, 312 h, rate 250 g/ha, evaluated after 13 days, glasshouse, read-out: Post-emergence activity ECHCG (100=total damage to plant; 0=no damage to plant). How it is done: as §1, §2
In experiment [6] the test system is Alopecurus myosuroides (ALOMY). Described as above. The conditions noted are these: Alopecurus myosuroides, 312 h, rate 250 g/ha, evaluated after 13 days, glasshouse, read-out: Post-emergence activity ALOMY (100=total damage to plant; 0=no damage to plant). The procedure:
as §1, §2

Experiment [7] relates to Lolium perenne (LOLPE). The experiment is described as above. The following applies: Lolium perenne, 312 h, rate 250 g/ha, evaluated after 13 days, glasshouse, read-out: Post-emergence activity LOLPE (100=total damage to plant; 0=no damage to plant). The procedure: as §1, §2
Experiment [8] relates to Avena fatua (AVEFA). The experiment is described as above. The following applies: Avena fatua, 312 h, rate 250 g/ha, evaluated after 13 days, glasshouse, read-out: Post-emergence activity AVEFA (100=total damage to plant; 0=no damage to plant). The procedure:
as §1, §2

In the case of `CCc1ccc(Oc2ccc(Cl)cc2)cc1C1=C(O)[C@H]2CC[C@H](C2)C1=O` (single isomer, unassigned) [Example A-88], the pest or weed control at 250 g/ha was determined as 100% in experiment [1]; 80% in experiment [2]; 100% in the experiment with Lolium perenne (LOLPE) [3]; 60% in the experiment with Avena fatua (AVEFA) [4]; 90% in experiment [5]; 70% in experiment [6]. Further, the pest or weed control at 250 g/ha in the experiment on Lolium perenne (LOLPE) [7] is 50%; in the experiment on Avena fatua (AVEFA) [8], 70%.
On to `CCc1ccc(Oc2ccc(Cl)cc2F)cc1C1=C(O)[C@H]2CC[C@H](C2)C1=O` (single isomer, unassigned) [Example A-89], for which the pest or weed control at 250 g/ha in experiment [1] was 100%; in experiment [2], 80%; in the experiment with Lolium perenne (LOLPE) [3] it was 100%; with Avena fatua (AVEFA) [4] it was 80%; in experiment [5], 100%; in experiment [6], 90%. The pest or weed control at 250 g/ha in the experiment with Lolium perenne (LOLPE) [7] was 60%; in the experiment on Avena fatua (AVEFA) [8] it was 90%.
Regarding `CCc1ccc(Oc2ccc(Cl)cc2Cl)cc1C1=C(O)[C@H]2CC[C@H](C2)C1=O` (single isomer, unassigned) [Example A-90], the pest or weed control at 250 g/ha in experiment [1] was found to be 100%; in experiment [2] it was 70%; with Lolium perenne (LOLPE) [3], 90%; in the experiment on Avena fatua (AVEFA) [4], 70%; in experiment [5], 90%; in experiment [6], 60%. Moreover, the pest or weed control at 250 g/ha with Lolium perenne (LOLPE) [7] was 80%; with Avena fatua (AVEFA) [8], 30%.
Take `CCc1ccc(Oc2ccc(Br)cc2)cc1C1=C(O)[C@H]2CC[C@H](C2)C1=O` (single isomer, unassigned) [Example A-91]: the pest or weed control at 250 g/ha in experiment [1] worked out at 100%; in experiment [2], 80%; in the experiment on Lolium perenne (LOLPE) [3], 100%; in the experiment on Avena fatua (AVEFA) [4] it was 70%; in experiment [5], 100%; in experiment [6] it was 90%. Further, the pest or weed control at 250 g/ha worked out at 80% in the experiment with Lolium perenne (LOLPE) [7] and 90% with Avena fatua (AVEFA) [8].
As to `CCc1ccc(Oc2ccc(F)cc2)cc1C1=C(O)[C@H]2CC[C@H](C2)C1=O` (single isomer, unassigned) [Example A-92], the pest or weed control at 250 g/ha in experiment [1] worked out at 100%; in experiment [2], 40%; with Lolium perenne (LOLPE) [3] it was 90%; in the experiment with Avena fatua (AVEFA) [4], 30%; in experiment [5], 80%; in experiment [6], 20%. The pest or weed control at 250 g/ha came out at 30% in the experiment with Lolium perenne (LOLPE) [7] and 10% in the experiment with Avena fatua (AVEFA) [8].
`Cc1ccc(Oc2ccc(Cl)cc2)cc1C1=C(O)C(C)(C)OC(C)(C)C1=O` [Example A-1]: the pest or weed control at 250 g/ha in experiment [1] was found to be 0%; in experiment [2], 0%; in the experiment with Avena fatua (AVEFA) [4], 0%; in experiment [5], 60%; in experiment [6], 20%; with Avena fatua (AVEFA) [8], 0%.
Regarding `Cc1ccc(Oc2ccc(Cl)cc2Cl)cc1C1=C(O)C(C)(C)OC(C)(C)C1=O` [Example A-2], the pest or weed control at 250 g/ha in experiment [1] is 0%; in experiment [2], 0%; with Avena fatua (AVEFA) [4], 0%; in experiment [5], 90%; in experiment [6], 60%; with Avena fatua (AVEFA) [8], 50%.
Turning to `CCc1ccc(Oc2ccc(Cl)cc2)cc1C1=C(O)C(C)(C)OC(C)(C)C1=O` [Example A-4], the pest or weed control at 250 g/ha in experiment [1] was 100%; in experiment [2] it was 40%; with Avena fatua (AVEFA) [4], 0%; in experiment [5] it was 100%; in experiment [6] it was 80%; with Avena fatua (AVEFA) [8], 0%.
`CCc1ccc(Oc2cccc(Cl)c2)cc1C1=C(O)C(C)(C)OC(C)(C)C1=O` [Example A-5]: the pest or weed control at 250 g/ha in experiment [1] amounted to 90%; in experiment [2] it was 0%; in the experiment with Avena fatua (AVEFA) [4], 0%; in experiment [5] it was 90%; in experiment [6], 20%; with Avena fatua (AVEFA) [8], 0%.
Consider `CCc1ccc(Oc2ccccc2Cl)cc1C1=C(O)C(C)(C)OC(C)(C)C1=O` [Example A-6], for which the pest or weed control at 250 g/ha in experiment [1] is 30%; in experiment [2] it was 0%; in the experiment on Avena fatua (AVEFA) [4], 0%; in experiment [5], 70%; in experiment [6] it was 0%; in the experiment with Avena fatua (AVEFA) [8], 0%.
In the case of `CCc1ccc(Oc2ccc(Br)cc2F)cc1C1=C(O)C(C)(C)OC(C)(C)C1=O` [Example A-7], the pest or weed control at 250 g/ha in experiment [1] was 100%; in experiment [2], 60%; in the experiment on Avena fatua (AVEFA) [4] it was 60%; in experiment [5] it was 100%; in experiment [6] it was 90%; in the experiment with Avena fatua (AVEFA) [8] it was 70%.
As for `CCc1ccc(Oc2ccc(F)c(C)c2)cc1C1=C(O)C(C)(C)OC(C)(C)C1=O` [Example A-179], the pest or weed control at 250 g/ha in experiment [2] amounted to 0%; in the experiment with Lolium perenne (LOLPE) [3], 0%; with Avena fatua (AVEFA) [4], 0%; in experiment [5], 20%; in experiment [6], 0%; in the experiment on Lolium perenne (LOLPE) [7], 20%. Also, in the experiment on Avena fatua (AVEFA) [8], the pest or weed control at 250 g/ha is 0%.
For the molecule `CCc1ccc(Oc2ccc(Cl)cc2C)cc1C1=C(O)C(C)(C)OC(C)(C)C1=O` [Example A-180], the pest or weed control at 250 g/ha in experiment [2] came to 0%; in the experiment with Lolium perenne (LOLPE) [3], 0%; in the experiment with Avena fatua (AVEFA) [4] it was 0%; in experiment [5] it was 30%; in experiment [6], 0%; in the experiment with Lolium perenne (LOLPE) [7], 10%. Further, the pest or weed control at 250 g/ha in the experiment with Avena fatua (AVEFA) [8] stood at 0%.
For `CCc1ccc(Oc2ccc(OC(F)(F)F)cc2)cc1C1=C(O)C(C)(C)OC(C)(C)C1=O` [Example A-242], the pest or weed control at 250 g/ha is 70% in experiment [2]; 80% with Lolium perenne (LOLPE) [3]; 40% with Avena fatua (AVEFA) [4]; 100% in experiment [5]; 100% in experiment [6]; 100% in the experiment with Lolium perenne (LOLPE) [7]. In the experiment on Avena fatua (AVEFA) [8], the pest or weed control at 250 g/ha was 100%.
On to `CCc1ccc(Oc2cnc3cc(Cl)ccc3n2)cc1C1=C(O)[C@@H]2CC[C@](C)(C1=O)C2(C)C` [Example A-243], for which the pest or weed control at 250 g/ha in experiment [2] was 90%; in the experiment on Lolium perenne (LOLPE) [3] it was 100%; in the experiment on Avena fatua (AVEFA) [4], 80%; in experiment [5], 100%; in experiment [6], 100%; in the experiment with Lolium perenne (LOLPE) [7], 100%. Also, the pest or weed control at 250 g/ha with Avena fatua (AVEFA) [8] came out at 100%.
